The assay concerns the target T1, human membrane progestin receptor α (hmPRα) (Homo sapiens, UniProt Q86WK9).
T1 construct: gene PAQR7; DDM-solubilized and purified over Ni-NTA, Cellufine Amino and SP-Sepharose; ~50 kDa band, theoretical 52 kDa with signal
T1 sequence (Q86WK9 1-346): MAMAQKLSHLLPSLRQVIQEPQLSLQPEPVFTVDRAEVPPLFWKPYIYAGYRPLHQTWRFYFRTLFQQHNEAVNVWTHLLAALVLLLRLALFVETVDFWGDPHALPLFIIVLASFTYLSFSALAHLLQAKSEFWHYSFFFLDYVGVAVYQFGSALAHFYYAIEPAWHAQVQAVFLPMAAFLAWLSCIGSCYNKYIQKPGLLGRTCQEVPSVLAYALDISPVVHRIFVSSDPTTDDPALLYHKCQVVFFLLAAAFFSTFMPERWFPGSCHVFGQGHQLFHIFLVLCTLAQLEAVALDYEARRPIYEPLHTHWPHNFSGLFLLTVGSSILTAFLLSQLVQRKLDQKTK
Briefly: radioligand saturation filter binding, Scatchard analysis.

The structures appear in SMILES notation. pKd: −log10 of the molar value.

The values that follow come from paper PMC4580469, “Expression and Purification of Human Membrane Progestin Receptor α (mPRα)” (PLoS ONE, 2015).

Usually pKd stands for the Kd on a negative log10 scale, so that one unit is a factor of ten. Low values mean a high Kd, high ones a low Kd. Compound `CC(=O)[C@H]1CC[C@H]2[C@@H]3CCC4=CC(=O)CC[C@]4(C)[C@H]3CC[C@]12C` [progesterone] showed a pKd of 8.28.
